Values of other authors, collected in patent US10449194B2 (Tocagen Inc., priority 2008, dated 2019).
Where two headings read alike, the source gives them in different places.

[1] = patients with normal renal function

Nc1nc(=O)[nH]cc1F [Example 5-FC, 5-fluorocytosine]
Time to peak serum concentrations (2 gram oral dose, normal subjects): ≤ 2 h
Serum level above which toxicity generally occurs (Vermes et al. 2000): > 100 µg/mL
Average half-life (nephrectomized or anuric patients): 85 h
Bioavailability (absorption) after oral administration (oral vs intravenous AUC of serum concentrations): 76-89%
Half-life in the serum [1]: 2 to 5 h
Time to peak concentrations in serum and other body fluids [1]: 1 to 2 h
Half-life in the serum (patients with severe renal insufficiency): up to 85 h
